Literature values in patent publication US20250228918A1, “METHODS OF CONTROLLING BODY WEIGHT AND/OR ENERGY EXPENDITURE” (Yale University, priority 2022, published 2025).

Conditions: in vivo

brain penetration: penetrates well into brain
Compound: C[C@H]1Oc2cc(cnc2N)-c2c(nn(C)c2C#N)CN(C)C(=O)c2ccc(F)cc21 [Lorlatinib]
